Earlier results, collected in patent publication US20140023696A1, “TREATMENT FOR IDIOPATHIC PULMONARY FIBROSIS” (priority 2012, published 2014).

Tested on: patients with IPF
Details: added to prednisone and azathioprine; 12 months of follow up

## CC(=O)N[C@@H](CS)C(=O)O [N-acetylcysteine]
  effect on FVC and DLCO: slight benefit
